# Measured values as given in patent publication US9326972B2, “Use of phenylmethimazoles, methimazole derivatives, and tautomeric cyclic thiones for the treatment of autoimmune/inflammatory diseases associated with toll-like receptor overexpression” (Ohio University, priority 2004, dated 2016).
# Marks after values point to notes of the source that are not given here.
# Tests used:
# Stat1 [1] = test: Stat1 phosphorylation in Influenza A infected FRTL-5 thyrocytes (Western blot); format: cell-based, rat
# Procedure: FIG. 6. Phenylmethimazole (C10) has no effect on the ability of Poly (I:C) or LPS to increase formation of the p50/p65 heterodimer complex of […] (A), but can inhibit the Influenza A induced activation of Stat1 phosphorylation in FRTL-5 thyrocytes (B). In (A), EMSA were performed using nuclear extracts from cells which were treated with nothing (none), Poly (I:C) (100 μg/ml), LPS (100 ng/ml), in the presence of DMSO, C10, or MMI for 6 hours. Probe was the NF-κβ consensus oligonucleotide. The p65/p50 and p50/p50 complexes are indicated and were identified as in FIG. 2B by antibody inhibition or supershifts of the p50 or p65 components of the induced complexes. In (B), cells were infected with Influenza A for 24 hours and then DMSO or C10 were added to the medium for 6 hours. In each, 25 μg of nuclear extracts were used in Western blots performed to detect Stat1 PY701. Blots were then stripped and reprobed for unphosphorylated Stat1. The first lane is a non infected control (−).
# Immunoprecipitation and Western Blot Analysis. Whole cell lysates were prepared in lysis buffer (10 mM Tris-HCl (pH 7.5), 150 mM NaCl, 1% NP-40) containing protease inhibitors. Nuclear extracts were prepared using the NE-PER extraction reagents with protease inhibitors stated below (Pierce Chemical Co., Rockford, Ill.). […]
# TLR4 signaled genes = test: Gene expression in organs of LPS-treated mice (Northern, RT-PCR); format: in vivo, mouse
# HAEC = test: IFN-β-induced IRF-1 and Stat1 phosphorylation in human aortic endothelial cells (immunoblot); format: cell-based
# mice = conditions: mouse, in vivo; cited from earlier work
# Stat1 [2] = test: LPS-induced Stat1 phosphorylation in RAW 264.7 macrophages (immunoblot); format: cell-based, mouse
# ApoE−/− mice = test: Atherosclerosis in ApoE−/− mice fed a high fat diet; format: in vivo, mouse; parameters: key to CORONARY AND MYOCARDIAL VESSELS INFLAMMATION / AORTIC INFLAMMATION: ++++ for severe; + for very mild
# Procedure: C10 reduced vascular inflammation in ApoE−/− mice fed a high fat diet: C10 was given i.p. (1 mg/kg) every other day to mice for 8 weeks. Control mice received DMSO alone. Mice were sacrificed at 8 weeks and histopathology examined in different tissues as determined by hematoxylin and eosin staining. In FIG. 15, sections from the base of the aorta in C10 treated (FIG. 15, Panel A) and untreated mice (FIG. 15, Panel B) are presented as well as sections of the coronary artery vasculature in C10 treated (FIG. 15, Panel C) and untreated mice (FIG. 15, Panel D). Vessels in the myocardium were also compared in C10 treated and untreated mice. […] Similarly in Panel D, the picture is representative of long sections of the coronary arteries that were nearly fully occluded with plaque in untreated mice whereas in C10 treated mice (Panel C), coronary arteries were largely unobstructed. Further, even where lesions were evident the lumens of vessels remained patent. Vessels within the myocardium were obstructed by plaque in the absence of C10 but patent and nearly free of plaque in the mice treated with C10. Data are representative of multiple slides taken from multiple animals.
# Sections of the coronary arteries and myocardium as well as the base of the aorta were compared in untreated mice vs. C10 treated mice both for extent of lesion, quality of lesion, overexpressed TLR4, overexpressed VCAM-1, and extent of inflammation and plaque. Lesions and observations were qualitatively evaluated using ++++ for severe to + for very mild. […] Evaluation was double blinded.
# Experimental animals: Twenty female Apo E−/− mice (Jackson Laboratory), 5 weeks old and weighing 14.5 g (average weight), were divided in 4 groups: (1) animals treated with 10% DMSO; (2) animals treated orally with C-10 in DMSO (1 mg/kg body weight); (3) animals treated I/P with C-10 in DMSO (same dose); and (4) control animals without treatment.
# The treatment was done every other day (8 week expt) or every day. The animals were fed on a Western-type diet (TD 88137 from Harlan, Teklan). […]
# [3] = C10 1 mg/kg every other day for 8 weeks
structure (smiles),measurement,setting,value
"Cn1c(-c2ccccc2)cnc1S [Compound C10, 5-Phenylmethimazole]",virus- or IFN-β-stimulated Stat1 phosphorylation (PY701),"Stat1 [1]; FRTL-5, Influenza A 24 hours then C10 6 hours",profound inhibitor
same,Stat1 serine phosphorylation at residue 727,"Stat1 [1]; FRTL-5, Influenza A virus 24 hours, 1 mM C10",reduce
same,"pro-inflammatory cytokine gene expression (TNF α, IL-1β, IL-6, IL-12, IFN γ) in spleen, liver, lung, kidney, heart","TLR4 signaled genes; LPS injected mice at 24 hours, Northern",suppressed
same,"LPS-induced over-expression of IRF-1, IP-10 and MCP-1 RNA in organs","TLR4 signaled genes; LPS-treated mice of Table 5, Northern",suppressed
same,LPS-elevated COX-2 RNA levels,"TLR4 signaled genes; kidney, liver and lung, RT-PCR",completely suppressed and returned to normal
same,LPS-down-regulated COX-1 RNA levels,"TLR4 signaled genes; organs of LPS treated mice, RT-PCR",returned RNA levels to the normal levels
same,LPS-increased iNOS RNA levels,"TLR4 signaled genes; spleen, liver, lung, kidney, heart, RT-PCR",suppressed
same,Stat1 serine phosphorylation at residue 727,"HAEC; 100 U/mL hIFN-β 2 hours, 1 mM C10",decreased
same,IFN-β induced Stat1 phosphorylation (Y701),"HAEC; 2 hours, C10 1 mM",decrease
same,IFN-β induction of IRF-1 protein,"HAEC; 2 hours, C10 1 mM",strongly decreased
same,inflammatory response and survival in DSS induced colitis,mice,suppress the inflammatory response and improve survival
same,LPS induced Stat1 phosphorylation in cytoplasmic and nuclear fractions,Stat1 [2]; RAW 264.7,reduce
same,Stat1 serine phosphorylation at residue 727,"Stat1 [2]; RAW 264.7, LPS 500 ng/mL 3 hours, 0.5 mM C10",reduce
same,AORTIC INFLAMMATION,ApoE−/− mice; [3],+*
same,CORONARY AND MYOCARDIAL VESSELS INFLAMMATION,ApoE−/− mice; [3],+*
same,weight gain,"ApoE−/− mice; C10 orally and ip, 4 weeks",decreased
